pIC50: −log10 of the molar value.
Tests used:
Type in all cases: biochemical
[1] = target: T1, GST-TIE2 (intracellular domains of human TIE2) (Homo sapiens, UniProt Q02763); assay: TIE-2 Enzyme Assay (TIE2-E2), LANCE method; conditions: for pIC50: read-out: TIE2 PIC50 TIE2-E2 assay
T1 construct: made in house
Excerpt: TIE-2 Enzyme Assay (TIE2-E2
The TIE-2 enzyme assay uses the LANCE method (Wallac) and GST-TIE2, baculovirus-expressed recombinant constructs of the intracellular domains of human TIE2 (amino acids 762–1104, GenBank Accession # L06139) tagged by GST). The method measures the ability of the purified enzymes to catalyse the transfer of the γ-phosphate from ATP onto tyrosine residues in a biotinylated synthetic peptide, D1–15 (biotin-C6-LEARLVAYEGWVAGKKKamide). This peptide phosphorylation is detected using the following procedure: for enzyme preactivation, GST-TIE2 is incubated for 2 hours at room temperature with 80 μM ATP, 10 mM MgCl2, 0.1 mg/ml BSA, 0.01% Tween 20 and 1 mM DTT in 100 mM HEPES buffer (pH7.4). 5 nM preactivated GST-TIE2 is incubated for 2 hours at room temperature in 96 well plates with 1 uM D1–15 peptide, 80 uM ATP, 10 mM MgCl2, 0.1 mg/ml BSA, 0.01% Tween 20 and titrated test compound (diluted from a 10 mM stock in DMSO, final DMSO concentration is 2.4%) in 100 mM HEPES (pH7.4). The reaction is stopped by the addition of EDTA (final concentration 45 mM). Streptavidin linked-APC (allophycocyanin, PerkinElmer) and europium-labeled anti-phosphotyrosine antibody (PerkinElmer) are then added at the final concentration of 8 nM and 1 nM, respectively. The APC signal is measured using an Wallac Multilabel 1420 counter. (Wallac Berthold Japan). The percent inhibition of activity is calculated relative to blank control wells. The concentration of test compound that inhibits 50% of activity (IC50) is interpolated using nonlinear regression (Levernberg-Marquardt) and the equation, y=Vmax (1−x/(K+x))+Y2, where “K” is equal to the IC50. The IC50 values are converted to pIC50 values, i.e., −log IC50 in Molar concentration.

GST-VEGFR2 = target: T2, GST-VEGFR2 (Homo sapiens, UniProt P35968); assay: VEGF-R2 Enzyme Assay (VEGF-E2), LANCE method
T2 construct: GST-VEGFR2, baculovirus expressed recombinant constructs of the intracellular domains; made in house
T2 sequence (P35968 786-1356 limits assumed): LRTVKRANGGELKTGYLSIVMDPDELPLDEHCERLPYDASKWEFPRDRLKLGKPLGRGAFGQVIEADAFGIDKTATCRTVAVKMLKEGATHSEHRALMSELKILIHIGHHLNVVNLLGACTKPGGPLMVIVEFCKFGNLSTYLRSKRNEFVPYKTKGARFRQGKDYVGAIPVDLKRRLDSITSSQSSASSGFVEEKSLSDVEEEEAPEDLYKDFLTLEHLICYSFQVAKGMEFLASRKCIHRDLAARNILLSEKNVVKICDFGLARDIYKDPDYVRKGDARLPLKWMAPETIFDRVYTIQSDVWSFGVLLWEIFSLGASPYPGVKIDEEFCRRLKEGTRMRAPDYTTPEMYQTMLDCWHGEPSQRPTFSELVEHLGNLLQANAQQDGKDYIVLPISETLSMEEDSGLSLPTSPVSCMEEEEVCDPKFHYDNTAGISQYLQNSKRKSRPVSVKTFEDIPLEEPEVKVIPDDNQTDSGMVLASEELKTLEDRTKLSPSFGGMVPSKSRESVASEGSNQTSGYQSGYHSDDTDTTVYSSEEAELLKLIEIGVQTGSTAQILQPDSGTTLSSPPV

[2] = target: T3, catalytic domain of human VEGFR3 (Homo sapiens, UniProt P35916, H890Q); assay: VEGFR-3 Homogenous Time-Resolved Fluorescence Assay (VEGFR-3-HTRF); conditions: read-out: VEGFR3 PIC50 VEGFR-3-HTRF assay
T3 construct: made in house; host or cells: Sf9 insect cells (baculovirus, pFastBac1)
T3 sequence (P35916 with tags, fused parts or gaps isoform P35916-1 H890Q): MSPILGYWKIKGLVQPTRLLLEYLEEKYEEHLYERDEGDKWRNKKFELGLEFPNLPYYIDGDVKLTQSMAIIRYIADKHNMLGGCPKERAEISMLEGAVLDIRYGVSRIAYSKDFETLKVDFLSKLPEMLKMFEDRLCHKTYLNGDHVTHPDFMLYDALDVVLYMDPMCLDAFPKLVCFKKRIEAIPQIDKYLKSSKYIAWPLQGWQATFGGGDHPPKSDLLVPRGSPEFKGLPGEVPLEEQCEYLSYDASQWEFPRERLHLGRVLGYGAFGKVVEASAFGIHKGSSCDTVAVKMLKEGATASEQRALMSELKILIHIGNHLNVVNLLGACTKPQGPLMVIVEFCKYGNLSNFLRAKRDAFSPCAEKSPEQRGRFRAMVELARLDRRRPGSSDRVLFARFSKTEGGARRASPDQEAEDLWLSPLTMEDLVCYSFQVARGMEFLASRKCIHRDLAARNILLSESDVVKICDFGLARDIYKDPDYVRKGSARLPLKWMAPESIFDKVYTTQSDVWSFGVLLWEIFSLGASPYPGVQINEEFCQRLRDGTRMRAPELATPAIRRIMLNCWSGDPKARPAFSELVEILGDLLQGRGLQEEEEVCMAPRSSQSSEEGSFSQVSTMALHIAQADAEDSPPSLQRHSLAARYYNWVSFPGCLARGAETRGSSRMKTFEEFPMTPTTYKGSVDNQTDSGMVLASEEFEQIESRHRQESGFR
Excerpt: VEGFR—3-Homogenous Time-Resolved Fluorescence Assay (VEGFR-3-HTRF)
This assay assesses Vascular Endothelial Growth Factor 3 (VEGFR3) tyrosine kinase inhibitory activity in substrate phosphorylation assays. The assay examines the ability of small molecule organic compounds to inhibit the tyrosine phosphorylation of a peptide substrate.
The substrate phosphorylation assays use the VEGFR3 catalytic domain, which is expressed in Sf. 9 insect cells as an amino-terminal GST-tagged fusion protein. The catalytic domain of human VEGFR3 (AA residues #819–1298 based upon GenBank Accession #XM003852) is cloned by PCR from human Placenta Marathon Ready cDNA (Clontech). The PCR product is subcloned into pFastBac1 vector containing an N-terminal GST tag. The resulting pFB/GST/VEGFR3icd vector is used to generate a recombinant baculovirus for protein expression. The VEGFR3 catalytic domain translated sequence is:
Autophosphorylation allows enzymes to be fully activated prior to addition to peptide substrates. The assays are performed using enzyme that has been activated by autophosphorylation via preincubation in buffer with ATP and magnesium. Activated enzyme is then diluted and added to titrated compound and the substrate mix.
200 nM VEGFR3 enzyme is activated for 45 minutes at room temperature by incubating the enzyme in buffer containing 100 mM HEPES (pH7.2), 75 μM ATP, 0.3 mM DTT, 0.1 mg/mL BSA, and 10 mM MgCl2. After activation, VEGFR3 is diluted 100-fold into 2× dilution buffer: 200 mM HEPES (pH 7.5), 0.2 mg/mL BSA, 0.6 mM DTT. 20 μL of the diluted enzyme mix is added to 20 μL of 2× substrate mix (150 μM ATP, 20 mM MgCl2, 0.72 μM biotinylated peptide) in the assay plates. Final assay conditions are: 100 mM HEPES (pH 7.2), 75 μM ATP, 10 mM MgCl2, 0.1 mg/mL BSA, 0.3 mM DTT, 0.36 μM biotinylated peptide, and 1 nM VEGFR3 enzyme. Assay plates are incubated for 1.5 hours at room temperature before the addition of 30 μL 100 mM EDTA to the wells to stop the enzymatic reaction. 40 μL/well of HTRF mix are then added to the assay plates for the detection of phosphorylated substrate. Final assay concentrations are: 100 mM HEPES (pH7.2), 0.1 mg/mL BSA, 15 nM streptavidin-labeled allophycocyanin (PerkinElmer), and 1 nM europium-labeled anti-phosphotyrosine antibody (PerkinElmer). Assay plates are left unsealed and are counted in a Wallac Multilabel Counter 1420 (PerkinElmer).
The data for dose responses are plotted as % Control calculated with the data reduction formula 100*(U1–C2)/(C1–C2) versus concentration of compound where U is the unknown value, C1 is the average control value obtained for DMSO , and C2 is the average control value obtained for 0.1M EDTA. Data are fitted to the curve described by: y=((Vmax*x)/(K+x)) where Vmax is the upper asymptote and K is the IC50.

T1 sequence (Q02763 762-1104): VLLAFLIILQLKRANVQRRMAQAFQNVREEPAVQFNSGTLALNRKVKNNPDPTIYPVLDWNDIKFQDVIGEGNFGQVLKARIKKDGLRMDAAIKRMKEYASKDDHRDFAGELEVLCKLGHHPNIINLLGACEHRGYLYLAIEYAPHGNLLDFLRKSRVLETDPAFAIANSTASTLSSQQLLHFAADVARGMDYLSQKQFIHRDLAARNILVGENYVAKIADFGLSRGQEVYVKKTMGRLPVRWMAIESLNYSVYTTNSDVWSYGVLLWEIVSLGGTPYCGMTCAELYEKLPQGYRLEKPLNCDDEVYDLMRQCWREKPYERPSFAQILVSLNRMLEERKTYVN

| Compound | pIC50 [1] | pIC50 [2] | other results |
| --- | --- | --- | --- |
| Cn1nc(-c2ccc(NC(=O)Nc3cc(C(F)(F)F)cc(C(F)(F)F)c3)cc2)c2cnc(NCCN3CCOCC3)nc21 [Example 41, 1-(Bis-trifluoromethyl-phenyl)-3-{4-[1-methyl-6-(2-morpholin-4-yl-ethylamino)-1H-pyrazolo[3,4-d]pyrimidin-3-yl]-phenyl}-urea] | – | – | TIE2 PIC50 TIE2-E2 assay [1]: ++ (++ = PIC50 = 6.00 to less than 7.00); VEGFR2 PIC50 VEGFR-E2 assay (GST-VEGFR2): −− (−− = PIC50 less than 5.00) |
| Cn1nc(-c2ccc(NC(=O)Nc3cccc(C(F)(F)F)c3)cc2)c2cnc(NCCN3CCOCC3)nc21 [Example 42, 1-{4-[1-Methyl-6-(2-morpholin-4-yl-ethylamino)-1H-pyrazolo[3,4-d]pyrimidin-3-yl]-phenyl}-3-(3-trifluoromethyl-phenyl)-urea] | ≥ 7.40 | 5.00 to 6.00 | – |
| Cc1cc(-c2nn(C)c3nc(NCCN4CCOCC4)ncc23)ccc1NC(=O)Nc1ccc2ccccc2c1 [Example 46, 1-{2-Methyl-4-[1-methyl-6-(2-morpholin-4-yl-ethylamino)-1H -pyrazolo[3,4-d]pyrimidin-3-yl]-phenyl}-3-naphthalen-2-yl-urea] | 6.00 to 7.00 | – | pIC50 (GST-VEGFR2; read-out: VEGFR2 PIC50 VEGFR-E2 assay): < 5.00 |
| Cn1nc(-c2ccc(NS(=O)(=O)c3cccc(Cl)c3Cl)cc2)c2cnc(NCCCCN3CCCC3)nc21 [Example 110, 2,3-Dichloro-N-{4-[1-methyl-6-(4-pyrrolidin 1-yl-butylamino)-1H-pyrazolo[3,4-d]pyrimidin-3-yl]-phenyl}-benzenesulfonamide] | < 5.00 | – | – |
| CN1CCN(CCCNc2ncc3c(-c4ccc(NS(=O)(=O)c5cccc(Cl)c5Cl)cc4)nn(C)c3n2)CC1 [Example 111, 2,3-Dichloro-N-(4-{1-methyl-6-[3-(4-methyl-piperazin-1-yl)-propylamino]-1H-pyrazolo[3,4-d]pyrimidin-3-yl]-phenyl}-benzenesulfonamide] | 5.00 to 6.00 | < 5.00 | – |
| CC(=O)NCCNc1ncc2c(-c3ccc(NS(=O)(=O)c4cccc(Cl)c4Cl)cc3)nn(C)c2n1 [Example 115, 2,3-Dichloro-N-{4-[1-methyl-6-(2-acetylamino-ethylamino)-1H-pyrazolo[3,4-d]pyrimidin-3-yl]-phenyl}-benzenesulfonamide] | < 5.00 | 5.00 to 6.00 | – |
| Cn1nc(-c2ccc(NS(=O)(=O)c3cccc(Cl)c3Cl)cc2)c2cnc(NCCCn3ccnc3)nc21 [Example 116, 2,3-Dichloro-N-{4-[1-methyl-6-(3-imidazol-1-yl-propylamino)-1H-pyrazolo[3,4-d]pyrimidin-3-yl]-phenyl}-benzenesulfonamide] | < 5.00 | < 5.00 | – |
| Cn1cccc1CCNc1ncc2c(-c3ccc(NS(=O)(=O)c4cccc(Cl)c4Cl)cc3)nn(C)c2n1 [Example 117, 2,3-Dichloro-N-(4-{1-methyl-6-[2-(1-methyl-1H-pyrrol-2-yl)ethylamino]-1H-pyrazolo[3,4-d]pyrimidin-3-yl]-phenyl}-benzenesulfonamide] | – | 5.00 to 6.00 | – |
| Cn1nc(-c2ccc(NS(=O)(=O)c3cccc(Cl)c3Cl)cc2)c2cnc(NC(CO)CO)nc21 [Example 118, 2,3-Dichloro-N-{4-[1-methyl-6-(2-hydroxy-1-hydroxymethyl-ethylamino)-1H-pyrazolo[3,4-d]pyrimidin-3-yl]-phenyl}-benzenesulfonamide] | < 5.00 | – | – |
| Cn1nc(-c2ccc(NS(=O)(=O)c3cccc(Cl)c3Cl)cc2)c2cnc(NCCCN)nc21 [Example 119, 2,3-Dichloro-N-{4-[1-methyl-6-(3-amino-propylamino)-1H-pyrazolo[3,4-d]pyrimidin-3-yl]-phenyl}-benzenesulfonamide] | 5.00 to 6.00 | < 5.00 | – |
| Cn1nc(-c2ccc(NS(=O)(=O)c3cccc(Cl)c3Cl)cc2)c2cnc(NCCCCN)nc21 [Example 120, 2,3-Dichloro-N-{4-[1-methyl-6-(4-amino-butylamino)-1H-pyrazolo[3,4-d]pyrimidin-3-yl]-phenyl}-benzenesulfonamide] | 5.00 to 6.00 | – | – |
| Cn1nc(-c2ccc(NS(=O)(=O)c3cccc(Cl)c3Cl)cc2)c2cnc(NCCCCNC(=N)N)nc21 [Example 121, 2,3-Dichloro-N-{4-[1-methyl-6-(4-guanidino-butylamino)-1H-pyrazolo[3,4-d]pyrimidin-3-yl]-phenyl}-benzenesulfonamide] | 5.00 to 6.00 | < 5.00 | – |
| Cn1nc(-c2ccc(NC(=O)Nc3cc(C(F)(F)F)ccc3F)c(F)c2)c2cnc(NCCCN3CCOCC3)nc21 [Example 127] | ≥ 7.40 | – | – |
| CC1CCCCN1CCCNc1ncc2c(-c3ccc(NC(=O)Nc4cc(C(F)(F)F)ccc4F)c(F)c3)nn(C)c2n1 (centres unmarked) [Example 128] | ≥ 7.40 | – | – |
| CCN(CC)CCCNc1ncc2c(-c3ccc(NC(=O)Nc4cc(C(F)(F)F)ccc4F)c(F)c3)nn(C)c2n1 [Example 129] | ≥ 7.40 | – | – |
| CN1CCCC1CCNc1ncc2c(-c3ccc(NC(=O)Nc4cc(C(F)(F)F)ccc4F)c(F)c3)nn(C)c2n1 (centres unmarked) [Example 130] | ≥ 7.40 | – | – |
| CN1CCN(CCCNc2ncc3c(-c4ccc(NC(=O)Nc5cc(C(F)(F)F)ccc5F)c(F)c4)nn(C)c3n2)CC1 [Example 131] | ≥ 7.40 | – | – |
| Cn1nc(-c2ccc(NC(=O)Nc3cc(C(F)(F)F)ccc3F)cc2)c2cnc(NCCc3ccncc3)nc21 [Example 140, 1-(2-Fluoro-5-trifluoromethyl-phenyl)-3-{4-[(1-methyl-6-(2-pyridin-4-yl-ethylamino)-1H-pyrazolo[3,4-d]pyrimidin-3-yl]-phenyl]} urea] | 7.00 to 7.40 | 6.00 to 7.00 | – |
| Cn1nc(-c2ccc(NC(=O)Nc3cc(C(F)(F)F)ccc3F)cc2)c2cnc(NCCc3cccnc3)nc21 [Example 141] | 6.00 to 7.00 | < 5.00 | – |
| Cn1nc(-c2ccc(NC(=O)Nc3cc(C(F)(F)F)ccc3F)cc2)c2cnc(NCCc3ccccn3)nc21 [Example 142] | 6.00 to 7.00 | – | – |
| Cn1nc(-c2ccc(NC(=O)Nc3cc(C(F)(F)F)ccc3F)cc2)c2cnc(NCc3cccnc3)nc21 [Example 144, 1-(2-Fluoro-5-trifluoromethyl-phenyl)-3-{4-[(1-methyl-6-(pyridin-3-ylmethyl)-amino)-1H-pyrazolo[3,4-d]pyrimidin-3-yl]-phenyl} urea] | 6.00 to 7.00 | – | – |
| CCNc1ncc2c(-c3ccc(NC(=O)Nc4ccc(C(F)(F)F)cc4F)cc3)nn(C)c2n1 [Example 162] | 5.00 to 6.00 | – | – |

From US7217710B2, “Substituted pyrazolopyrimidines” (SmithKline Beecham Corporation, priority 2001, dated 2007)
